This is an account of results in patent US5336757A, “Antibacterial peptide and methods of use” (Harbor Branch Oceanographic Institution, Inc., priority 1992, dated 1994).

Experiment [1] relates to Bacillus subtilis. Format: cell-based. The procedure: Bacillus subtilis: Standard spore stocks (ATCC strain 6633) were purchased from Difco (#0453-36-0). Two-fold dilutions of polydiscamide A were prepared in 50 μL volumes of a suitable solvent using 96-well microtiter plates. In a separate 96-well plate, 35 μL volumes of Mueller-Hinton broth were placed in each well. The compound (5 μL) was then transferred to the broth. An inoculum of B. subtilis in the appropriate medium was added to give a cell density of 1000 cells/mL and a total volume of 50 μL. Plates were incubated at 37° C. overnight.

Experiment [2] deals with P388 murine leukemia cells. As to conditions: 48 h.
Protocol: Polydiscamide A was tested for toxicity against P388 murine leukemia cells and A549 human lung carcinoma cells.
The P388 cells were maintained in Roswell Park Memorial Institute medium 1640 (RPMI-1640) supplemented with 10% horse serum and cultured in plastic tissue culture flasks and kept in an incubator at 37° C. in humidified air containing 5% CO2. The A549 cells were similarly maintained in RPMI-1640 but supplemented with 10% fetal bovine serum. Antibiotic-free stock cultures of P388 and A549 cells were subcultured to 10^5 cells/ml by dilutions in fresh growth medium at 2 to 5 day intervals. […]
To quantitate the effects of polydiscamide A or its analogs on cell proliferation, 75 μl warm growth medium containing 5 mg/ml MTT was added to each well. […] To spectrophotometrically quantitate formation of reduced formazan, plates were centrifuged (900 g, 5 minutes), culture fluids were removed by aspiration, and 200 μl of acidified isopropanol (2 ml concentrated HCl/L isopropanol) added per well. The absorbance of the resulting solutions was measured at 570 nm with a plate reader (MR700 Microplate Reader, Dynatech Laboratories, Chantilly, Va.). […]
The subject of experiment [3] is A549 human lung carcinoma cells. As to conditions: 72 h.
Protocol: P388 murine leukemia cells obtained from Dr. J. Mayo, National Cancer Institute, Bethesda, Md., and A549 cells were obtained from the American Type Culture Collection, Rockville, Md. The P388 cells were maintained in Roswell Park Memorial Institute medium 1640 (RPMI-1640) supplemented with 10% horse serum and cultured in plastic tissue culture flasks and kept in an incubator at 37° C. in humidified air containing 5% CO2. The A549 cells were similarly maintained in RPMI-1640 but supplemented with 10% fetal bovine serum. Antibiotic-free stock cultures of P388 and A549 cells were subcultured to 10^5 cells/ml by dilutions in fresh growth medium at 2 to 5 day intervals. […]
To quantitate the effects of polydiscamide A or its analogs on cell proliferation, 75 μl warm growth medium containing 5 mg/ml MTT was added to each well. […] To spectrophotometrically quantitate formation of reduced formazan, plates were centrifuged (900 g, 5 minutes), culture fluids were removed by aspiration, and 200 μl of acidified isopropanol (2 ml concentrated HCl/L isopropanol) added per well. The absorbance of the resulting solutions was measured at 570 nm with a plate reader (MR700 Microplate Reader, Dynatech Laboratories, Chantilly, Va.).

≈ marks a conversion by molar mass, not a printed value. Bridge positions count the residues as written; N and C are the ends. Square brackets hold non-standard residues; d marks the D form. Peptide text beside a SMILES is read from it. * marks the point of attachment. Phe(4-Br) = N[C@@H](Cc1ccc(Br)cc1)C(=O)O; Ile(3-Me) = CCC(C)(C)[C@H](N)C(=O)O; Cya = N[C@@H](CS(=O)(=O)O)C(=O)O; NMeQ = CN[C@@H](CCC(N)=O)C(=O)O; Tle = CC(C)(C)[C@H](N)C(=O)O; For = O=C*

For the compound `CCC(C)(C)[C@H](NC(=O)[C@@H](NC(=O)[C@@H]1CCCN1C(=O)[C@H](Cc1ccc(Br)cc1)NC(=O)[C@H](C)NC=O)C(C)(C)C)C(=O)N[C@@H](Cc1c[nH]c2ccccc12)C(=O)N[C@@H](CCCNC(=N)N)C(=O)N[C@@H](CS(=O)(=O)O)C(=O)N[C@@H]1C(=O)N(C)[C@@H](CCC(N)=O)C(=O)N[C@@H](C(C)C)C(=O)N2CCC[C@H]2C(=O)N[C@@H](CC(N)=O)C(=O)O[C@@H]1C` [polydiscamide A] (For-A[Phe(4-Br)]P[Tle][Ile(3-Me)]WR[Cya]T[NMeQ]VPN; ester 9-C), in experiment [1], the “MIC against B. subtilis” value worked out at 3.1 µg/mL (≈ 1.81 µM). Further, the “IC50 against mouse leukemia cells (P388)” value in experiment [2] turned out to be 0.96 µg/mL (≈ 0.561 µM). Also, in experiment [3], the “IC50 against cultured human lung carcinoma cells (A549)” value was 0.66 µg/mL (≈ 0.386 µM).
